From US10717716B2, “1,3,4-oxadiazole derivative compounds as histone deacetylase 6 inhibitor, and the pharmaceutical composition comprising the same” (Chong Kun Dang Pharmaceutical Corp., priority 2015, dated 2020)

What was measured:
human recombinant HDAC6 = target: T1, human recombinant HDAC6 (Homo sapiens, UniProt Q9UBN7); assay: HDAC6 enzyme activity inhibition assay (HDAC Fluorimetric Drug Discovery Kit); type: biochemical; details: for HDAC6 selectivity (fold): HDAC6 over HDAC1; for IC50: human recombinant HDAC6, same protocol as HDAC1, read-out: HDAC6
T1 construct: purchased Calbiochem 382180
T1 sequence (Q9UBN7 1-1215): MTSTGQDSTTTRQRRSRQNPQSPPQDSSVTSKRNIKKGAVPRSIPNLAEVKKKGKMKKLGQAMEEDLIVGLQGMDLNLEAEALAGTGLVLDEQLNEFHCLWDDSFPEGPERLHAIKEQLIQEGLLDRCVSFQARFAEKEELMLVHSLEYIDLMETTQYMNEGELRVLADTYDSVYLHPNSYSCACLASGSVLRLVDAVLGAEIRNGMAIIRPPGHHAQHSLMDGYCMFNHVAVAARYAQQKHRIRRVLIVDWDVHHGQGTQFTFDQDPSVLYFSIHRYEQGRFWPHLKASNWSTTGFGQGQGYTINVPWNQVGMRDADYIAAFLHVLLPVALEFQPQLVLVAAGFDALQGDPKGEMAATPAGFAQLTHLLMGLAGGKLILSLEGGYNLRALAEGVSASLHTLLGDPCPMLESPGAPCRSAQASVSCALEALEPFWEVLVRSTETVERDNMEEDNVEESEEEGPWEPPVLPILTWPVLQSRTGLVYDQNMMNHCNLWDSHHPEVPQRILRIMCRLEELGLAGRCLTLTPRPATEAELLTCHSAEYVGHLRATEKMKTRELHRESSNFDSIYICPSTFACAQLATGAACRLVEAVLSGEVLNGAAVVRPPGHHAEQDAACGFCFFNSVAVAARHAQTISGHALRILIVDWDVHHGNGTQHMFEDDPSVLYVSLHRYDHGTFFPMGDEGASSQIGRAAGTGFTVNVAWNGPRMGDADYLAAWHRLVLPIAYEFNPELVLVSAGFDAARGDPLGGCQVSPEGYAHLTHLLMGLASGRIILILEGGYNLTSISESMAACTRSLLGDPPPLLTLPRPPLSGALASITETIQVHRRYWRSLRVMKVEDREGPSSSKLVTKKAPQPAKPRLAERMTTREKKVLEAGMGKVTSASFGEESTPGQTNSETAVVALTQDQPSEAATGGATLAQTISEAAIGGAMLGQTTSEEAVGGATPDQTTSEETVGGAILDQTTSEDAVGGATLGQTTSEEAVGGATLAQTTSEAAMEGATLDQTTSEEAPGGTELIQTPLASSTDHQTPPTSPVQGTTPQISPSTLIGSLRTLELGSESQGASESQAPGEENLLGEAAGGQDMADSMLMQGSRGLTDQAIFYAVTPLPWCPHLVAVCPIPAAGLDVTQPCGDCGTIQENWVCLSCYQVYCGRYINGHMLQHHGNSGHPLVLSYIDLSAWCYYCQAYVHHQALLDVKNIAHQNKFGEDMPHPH
Method in brief: (§1)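 Human recombinant HDAC1 or HDAC6 (0.3 μg) reacted with 10 μM Fluor de Lys-SIRT1 substrate and 5-fold compound dilutions for 60 min at 30 °C. Developer II added for 30 min, fluorescence read at Ex 360/Em 460; IC50 calculated from the readings.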

human recombinant HDAC1 = target: T2, human recombinant HDAC1 (Homo sapiens, UniProt Q13547); assay: HDAC1 enzyme activity inhibition assay (HDAC Fluorimetric Drug Discovery Kit); type: biochemical; details: 30° C. 60 minutes
T2 construct: purchased Enzo Life Science BML-SE456
Method in brief: as §1

[1] = human recombinant HDAC1, Fluor de Lys substrate 10 μM

T2 sequence (Q13547 whole entry): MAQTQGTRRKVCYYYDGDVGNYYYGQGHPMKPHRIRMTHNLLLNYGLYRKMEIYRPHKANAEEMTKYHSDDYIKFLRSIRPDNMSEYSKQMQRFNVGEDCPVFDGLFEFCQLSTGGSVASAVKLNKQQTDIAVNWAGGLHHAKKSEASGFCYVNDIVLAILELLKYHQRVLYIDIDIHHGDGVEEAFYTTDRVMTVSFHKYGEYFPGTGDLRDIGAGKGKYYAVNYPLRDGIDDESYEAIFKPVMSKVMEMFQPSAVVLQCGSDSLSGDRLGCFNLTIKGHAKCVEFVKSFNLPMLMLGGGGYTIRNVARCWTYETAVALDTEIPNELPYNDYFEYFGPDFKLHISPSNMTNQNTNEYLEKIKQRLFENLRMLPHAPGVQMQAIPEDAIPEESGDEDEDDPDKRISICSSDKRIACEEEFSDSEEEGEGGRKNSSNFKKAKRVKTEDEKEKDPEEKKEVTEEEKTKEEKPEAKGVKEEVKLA

SMILES | HDAC6 selectivity (fold) (human recombinant HDAC6) | IC50 (human recombinant HDAC6) [nM] | IC50 (human recombinant HDAC1; [1]) [nM] | IC50 (human recombinant HDAC1; human recombinant HDAC1, Fluor de Lys substrate) [nM]
CCN1CCN(C(=O)N(Cc2ccc(-c3nnc(C(F)F)o3)cc2F)c2ccc(F)cc2Cl)CC1 [Compound 21650, N-(2-chloro-4-fluorophenyl)-N-(4-(5-(difluoromethyl)-1,3,4-oxadiazol-2-yl)-2-fluorobenzyl)-4-ethylpiperazine-1-carboxamide] | 468 | 77 | 36100 | 
O=C(N1CC[C@H](F)C1)N(Cc1ccc(-c2nnc(C(F)(F)F)o2)cc1F)c1ccc(F)c(Cl)c1 [Compound 21666, (S)—N-(3-chloro-4-fluorophenyl)-3-fluoro-N-(2-fluoro-4-(5-(trifluoromethyl)-1,3,4-oxadiazol-2-yl)benzyl)pyrrolidine-1-carboxamide] | 55 | 374 | 20500 | 
CCN1CCN(C(=O)N(Cc2ccc(-c3nnc(C(F)(F)F)o3)cc2F)c2cccc(F)c2)CC1 [Compound 21866, 4-Ethyl-N-(2-fluoro-4-(5-(trifluoromethyl)-1,3,4-oxadiazol-2-yl)benzyl)-N-(3-fluorophenyl)piperazine-1-carboxamide] | 174 | 137 | 23900 | 
O=C(N1CCS(=O)(=O)CC1)N(Cc1ccc(-c2nnc(C(F)(F)F)o2)cc1)c1ccc(F)cc1 [Compound 21389, N-(4-Fluorophenyl)-N-(4-(5-(trifluoromethyl)-1,3,4-oxadiazol-2-yl)benzyl)thiomorpholine-4-carboxamide 1,1-dioxide] | 68 | 93 | 6360 | 
O=C(N1CCS(=O)(=O)CC1)N(Cc1ccc(-c2nnc(C(F)F)o2)cn1)c1ccc(-c2ccncc2)cc1 [Compound 21823, N-((5-(5-(difluoromethyl)-1,3,4-oxadiazol-2-yl)pyridin-2-yl)methyl)-N-(4-(pyridin-4-yl)phenyl)thiomorpholine-4-carboxamide 1,1-dioxide] | 370 | 56 | 20800 | 
CCN1CCN(C(=O)N(Cc2ccc(-c3nnc(C(F)F)o3)cc2)c2cccc(Cl)c2)CC1 [Compound 21877, N-(3-Chlorophenyl)-N-(4-(5-(difluoromethyl)-1,3,4-oxadiazol-2-yl)benzyl)-4-ethylpiperazine-1-carboxamide] | 1424 | 46 | 65000 | 
O=C(N1CCS(=O)(=O)CC1)N(Cc1ccc(-c2nnc(C(F)(F)F)o2)cc1F)c1ccc(CN2CCN(C3COC3)CC2)cc1 [Compound 21898, N-(2-fluoro-4-(5-(trifluoromethyl)-1,3,4-oxadiazol-2-yl)benzyl)-N-(4-((4-(oxetan-3-yl)piperazin-1-yl)methyl)phenyl)thiomorpholine-4-carboxamide 1,1-dioxide] | 164 | 247 | 40600 | 
Cc1cccc(N(Cc2ccc(-c3nnc(C(F)(F)F)o3)cc2)C(=O)N2CCS(=O)(=O)CC2)c1 [Compound 21442, N-(m-tolyl)-N-(4-(5-(trifluoromethyl)-1,3,4-oxadiazol-2-yl)benzyl)thiomorpholine-4-carboxamide 1,1-dioxide] | 77 | 114 | 8730 | 
O=C(N1CCOCC1)N(Cc1ccc(-c2nnc(C(F)(F)F)o2)cc1F)c1ccc(F)cc1F [Compound 21859, N-(2,4-difluorophenyl)-N-(2-fluoro-4-(5-(trifluoromethyl)-1,3,4-oxadiazol-2-yl)benzyl)morpholine-4-carboxamide] | 177 | 133 | 23500 | 
CCN1CCN(C(=O)N(Cc2ccc(-c3nnc(C(F)F)o3)cn2)c2ccc(OC)cc2)CC1 [Compound 21894, N-((5-(5-(Difluoromethyl)-1,3,4-oxadiazol-2-yl)pyridin-2-yl)methyl)-4-ethyl-N-(4-methoxyphenyl)piperazine-1-carboxamide] | 1588 | 48 | 76300 | 
Cn1ncc2ccc(-c3cccc(N(Cc4ccc(-c5nnc(C(F)(F)F)o5)cc4)C(=O)N4CCS(=O)(=O)CC4)c3)cc21 [Compound 21438, N-(3-(1-methyl-1H-indazol-6-yl)phenyl)-N-(4-(5-(trifluoromethyl)-1,3,4-oxadiazol-2-yl)benzyl)thiomorpholine-4-carboxamide 1,1-dioxide] | 4 | 750 | 2700 | 
O=C(N1CCS(=O)(=O)CC1)N(Cc1ccc(-c2nnc(C(F)(F)F)o2)cc1)c1cccc(-c2ccccc2)c1 [Compound 21439, N-([1,1′-biphenyl]-3-yl)-N-(4-(5-(trifluoromethyl)-1,3,4-oxadiazol-2-yl)benzyl)thiomorpholine-4-carboxamide 1,1-dioxide] | 6 | 1010 | 6110 | 
O=C(N1CCS(=O)(=O)CC1)N(Cc1ccc(-c2nnc(C(F)(F)F)o2)cc1)c1cccc(-c2cccnc2)c1 [Compound 21436, N-(3-(pyridin-3-yl)phenyl)-N-(4-(5-(trifluoromethyl)-1,3,4-oxadiazol-2-yl)benzyl)thiomorpholine-4-carboxamide 1,1-dioxide] | 13 | 433 | 5730 | 
O=C(N1CCS(=O)(=O)CC1)N(Cc1ccc(-c2nnc(C(F)(F)F)o2)cc1)c1cccc(Br)c1 [Compound 21393, N-(3-bromophenyl)-N-(4-(5-(trifluoromethyl)-1,3,4-oxadiazol-2-yl)benzyl)thiomorpholine-4-carboxamide 1,1-dioxide] | 65 | 137 | 8960 | 
CCN1CCN(C(=O)N(Cc2ccc(-c3nnc(C(F)F)o3)cc2F)c2cccc(Cl)c2)CC1 [Compound 21878, N-(3-Chlorophenyl)-N-(4-(5-(difluoromethyl)-1,3,4-oxadiazol-2-yl)-2-fluorobenzyl)-4-ethylpiperazine-1-carboxamide] | 522 | 41 | 21500 | 
O=C(N1CCS(=O)(=O)CC1)N(Cc1ccc(-c2nnc(C(F)F)o2)cc1F)c1cccc(Cl)c1 [Compound 21810, N-(3-chlorophenyl)-N-(4-(5-(difluoromethyl)-1,3,4-oxadiazol-2-yl)-2-fluorobenzyl)thiomorpholine-4-carboxamide 1,1-dioxide] | 883 | 18 | 15700 | 
O=C(NCCN1CCS(=O)(=O)CC1)N(Cc1ccc(-c2nnc(C(F)F)o2)cc1F)c1ccccc1 [Compound 21985, 1-(4-(5-(Difluoromethyl)-1,3,4-oxadiazol-2-yl)-2-fluorobenzyl)-3-(2-(1,1-dioxidothiomorpholino)ethyl)-1-phenylurea] | 480 | 45 |  | 21400
O=C(N1CCS(=O)(=O)CC1)N(Cc1ccc(-c2nnc(C(F)(F)F)o2)cc1)c1cccc(-c2ccoc2)c1 [Compound 21435, N-(3-(furan-3-yl)phenyl)-N-(4-(5-(trifluoromethyl)-1,3,4-oxadiazol-2-yl)benzyl)thiomorpholine-4-carboxamide 1,1-dioxide] | 12 | 286 | 3380 | 
CCN1CCN(C(=O)N(Cc2ccc(-c3nnc(C(F)(F)F)o3)cc2)c2cccc(OC)c2)CC1 [Compound 21871, 4-Ethyl-N-(3-methoxyphenyl)-N-(4-(5-(trifluoromethyl)-1,3,4-oxadiazol-2-yl)benzyl)piperazine-1-carboxamide] | 28 | 321 | 9130 | 
O=C(N1CCOCC1)N(Cc1ccc(-c2nnc(C(F)F)o2)cc1F)c1ccc(F)cc1F [Compound 21858, N-(4-(5-(difluoromethyl)-1,3,4-oxadiazol-2-yl)-2-fluorobenzyl)-N-(2,4-difluorophenyl)morpholine-4-carboxamide] | 966 | 38 | 37100 | 
